Earlier results as cited in patent US20110015587A1, “Irrigation Device and Method Using Same” (priority 2009, published 2011).

Legend:
Escherichia coli = Escherichia coli exposed to hypochlorous acid
bacteria [1] = conditions: 2.6 ppm, 5 minutes
[2] = system: gram-negative and gram-positive bacteria, fungi and yeast including MRSA, Pseudomanas aeruginosa, VRE
bacteria [3] = conditions: very low concentrations
[4] = system: cellular components of wound healing

OCl [Hypochlorous acid]
time to loss of viability (Escherichia coli): less than 100 ms
growth inhibition (bacteria [1]): 100%

Polyaminopropyl biguanide [PAPB]
activity against gram-negative and gram-positive bacteria, fungi and yeast [2]: active
bactericidal concentration (bacteria [3]): 10 mg/L
toxicity to higher organisms such as human cells (human cells): very low toxicity

povidone-iodine
cytotoxicity to the cellular components of wound healing [4]: cytotoxic
